Data: the Kinase Knowledgebase extract (Sharma et al. 2016)

Key:
CDK2 [1] = molecular target: CDK2 (UniProt P24941); experiment: Enzyme Assay
CDK2 [2] = molecular target: CDK2 (UniProt P24941); experiment: Enzyme Assay; remark: listed apart in the source

IC50 (CDK2 [1]) [µM] | IC50 (CDK2 [2]) [µM] | SMILES
22 | 0.07 | COC(=O)[C@@]1(O)C[C@H]2O[C@]1(C)n1c3ccccc3c3c4c(c5c6ccccc6n2c5c31)C(=O)N[C@H]4CC(C)C
10 | 10 | COC(=O)[C@@]1(O)C[C@H]2O[C@]1(C)n1c3ccccc3c3c4c(c5c6ccccc6n2c5c31)C(=O)N[C@@H]4Cc1ccccc1
5.8 | > 3.7 | CCC(C)[C@@H]1NC(=O)c2c1c1c3ccccc3n3c1c1c2c2ccccc2n1[C@H]1C[C@](O)(C(=O)OC)[C@]3(C)O1 (stereo partly drawn)
1 | 0.15 | COC(=O)[C@@]1(O)C[C@H]2O[C@]1(C)n1c3ccccc3c3c4c(c5c6ccccc6n2c5c31)C(=O)N[C@H]4Cc1ccccc1

Further lines, the compound ahead of its results:

SMILES | IC50 (CDK2 [1]) [µM] | IC50 (CDK2 [2]) [µM]
COC(=O)[C@@]1(O)C[C@H]2O[C@]1(C)n1c3ccccc3c3c4c(c5c6ccccc6n2c5c31)C(=O)N[C@H]4C(C)C | 29 | 1.9
COC(=O)[C@@]1(O)C[C@H]2O[C@]1(C)n1c3ccccc3c3c4c(c5c6ccccc6n2c5c31)C(=O)N[C@H]4CCc1ccccc1 | 3.7 | –
CC(C)(C)n1nc(-c2cccc3ccccc23)c2c(N)ncnc21 | 18 | 0.015
